Experimental data as given in article PMC11284788, “NN1213 – A Potent, Long-Acting, and Selective Analog of Human Amylin” (Journal of Medicinal Chemistry, 2024).
Numbered stars: 1 amine (or outer) side, 2 acyl side, 3 side chain; on linkers, the order of the positions; unused ones are H or OH. Bridge positions count the residues as written; N and C are the ends. Side chains are listed from the residue outwards. Peptide text beside a SMILES is read from it. * marks the point of attachment. C20 diacid = O=C(O)CCCCCCCCCCCCCCCCCCC(=O)*; γGlu = O=C(O)[C@H](CCC(=O)[*:2])N[*:1]

Test: ThT assay: fibril formation propensity and peptide recovery
Type: physicochemical
How it was run: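 Fibrillation lag time is read visually from ThT fluorescence-time curves (444/485 nm, 20-min reads, 45 h, 37 °C, 960 rpm shaking) of 250 μM peptide with 1 μM ThT at pH 4.0 or 7.5. The most conservative of four replicates is used. Peptide recovery is post-stress soluble peptide (HPLC, 215/276 nm) as fraction of initial.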

- ThT, pH 4.0 lag-time (250 μM peptide, 10 mM glycylglycine pH 4.0, 1 μM ThT, 37 °C, 960 rpm, 45 h, lowest of four replicas, average of experiments): 7 h
- recovery (pH 4.0, residual dissolved peptide after 45 h of shaking, centrifugation and 0.22 μm filtration, HPLC, relative to amount before stress): 91%
SMILES: CC[C@H](C)[C@H](NC(=O)[C@H](C)NC(=O)CNC(=O)[C@H](Cc1ccccc1)NC(=O)[C@H](CC(N)=O)NC(=O)[C@@H]1CCCN1C(=O)[C@H](CO)NC(=O)[C@H](CO)NC(=O)[C@H](Cc1c[nH]cn1)NC(=O)[C@H](CCCNC(=N)N)NC(=O)[C@H](CC(C)C)NC(=O)[C@H](Cc1ccccc1)NC(=O)[C@H](CCC(=O)O)NC(=O)[C@H](C)NC(=O)[C@H](CC(C)C)NC(=O)[C@H](CCCNC(=N)N)NC(=O)[C@H](CCC(N)=O)NC(=O)[C@@H](NC(=O)[C@H](C)NC(=O)[C@@H]1CSSC[C@H](NC(=O)[C@@H](N)CCCCNC(=O)CC[C@H](NC(=O)CCCCCCCCCCCCCCCCCCC(=O)O)C(=O)O)C(=O)N[C@@H](CC(N)=O)C(=O)N[C@@H]([C@@H](C)O)C(=O)N[C@@H](C)C(=O)N[C@@H]([C@@H](C)O)C(=O)N1)[C@@H](C)O)C(=O)N1CCC[C@H]1C(=O)N[C@@H](CO)C(=O)N[C@@H](CO)C(=O)N[C@H](C(=O)N[C@@H](CC(N)=O)C(=O)N[C@H](C(=O)NCC(=O)N[C@@H](CO)C(=O)N[C@@H](CCCNC(=N)N)C(=O)N[C@H](C(=O)N[C@@H](Cc1ccc(O)cc1)C(N)=O)[C@@H](C)O)C(C)C)[C@@H](C)O [Peptide 20] (H-K([γGlu-C20 diacid])CNTATCATQRLAEFLRHSSPNFGAIPSSTNVGSRTY-NH2; disulfide 2-7)
